Measured values taken from patent US4522946A, “Dioxy hexahydrobenzo[6,7]cyclohepta[1,2,3-de]isoquinoline derivatives useful as neuroleptic agents” (Ayerst, McKenna & Harrison, Inc., priority 1983, dated 1985).
Structures can show the parent of a compound that is named as a salt.

Experiments:
[1] = system: conditioned avoidance response; experiment: conditioned avoidance response test (CAR), neuroleptic action; type: in vivo; settings: intraperitoneal, mg per kg body weight; for ED50: ip, read-out: CAR, ED50 (dose which caused a 50% failure in avoidance response)
[2] = system: tremorine-induced tremors in mice; experiment: antagonism of tremorine-induced tremors (ITIT), lack of cataleptic activity; type: in vivo; settings: intraperitoneal, mg per kg body weight; for ED50: Mus musculus, ip, read-out: ITIT, ED50 (dose which caused a 50% inhibition of tremorine induced tremors)
[3] = Sayers and Amsler 1977; cited from earlier work

Structure (SMILES) | CAR, ED50 (dose which caused a 50% failure in avoidance response) [1] | ITIT, ED50 (dose which caused a 50% inhibition of tremorine induced tremors) [2] | ED50 [1] [mg/kg] | ED50 [2] [mg/kg] | neuroleptic action without the extrapyramidal side effects (in words) [3]
Br.CC[C@H]1c2c(O)c(O)cc3c2[C@H](CN1C)c1ccccc1CC3 (relative stereo) [Example 23, (3,12b-trans)-3-ethyl-2-methyl-1,2,3,7,8,12b-hexahydrobenzo[6,7]cyclohepta[1,2,3-de]isoquinoline-4,5-diol hydrobromide] | 1.5 ± 0.4 mg/kg, i.p. | 18 ± 7.6 mg/kg, i.p. |  |  | 
Br.CCCC1c2c(O)c(O)cc3c2C(CN1C)c1ccccc1CC3 (stereo not drawn) [Example 24, (3,12b-trans)-2-methyl-3-propyl-1,2,3,7,8,12b-hexahydrobenzo[6,7]cyclohepta[1,2,3-de]isoquinoline-4,5-diol hydrobromide] | 4.4 ± 1.4 mg/kg, i.p. | 11 ± 4.3 mg/kg, i.p. |  |  | 
CC[C@H]1c2cc(O)c(O)c3c2[C@@H](CN1C)c1ccccc1CC3 (relative stereo) [Example 32, (3,12b-trans)-3-ethyl-2-methyl-1,2,3,7,8,12b-hexahydrobenzo[6,7]-cyclohepta[1,2,3-de]isoquinoline-5,6-diol hydrobromide] |  |  | 4.2 ± 0.4 | 21 ± 1.6 | 
CC[C@H]1c2c(O)c(OC)cc3c2[C@@H](CN1C)c1ccccc1CC3 (relative stereo) [Example 44, (3,12b-trans)-3-ethyl-5-methoxy-2-methyl-1,2,3,7,8,12b-hexahydrobenzo[6,7]-cyclohepta[1,2,3-de]isoquinolin-4-ol] | 3.0 ± 0.8 mg/kg, i.p. | 6.8 ± 2.0 mg/kg, i.p. |  |  | 
Br.CN1CC2c3ccccc3CCc3cc(O)c(O)c(c32)C1Cc1ccccc1 (stereo not drawn) [Example 26, (3,12b-trans)-2-metyl-3-(phenylmethyl)-1,2,3,7,8,12b-hexahydrobenzo[6,7]cyclohepta[1,2,3-de]isoquinoline-4,5-diol hydrobromide] | 1.6 ± 0.3 mg/kg, i.p. | 22 ± 5.7 mg/kg, i.p. |  |  | 
Br.CC1c2c(O)c(O)cc3c2C(CN1C)c1ccccc1CC3 (stereo not drawn) [Example 22, (3,12b-trans)-2,3-dimethyl-1,2,3,7,8,12b-hexahydrobenzo[6,7]cyclohepta[1,2,3-de]isoquinoline-4,5-diol hydrobromide] | 4.4 ± 2.0 mg/kg, i.p. | 13 ± 10.4 mg/kg, i.p. |  |  | 
Br.CC(C)C1c2c(O)c(O)cc3c2C(CN1C)c1ccccc1CC3 (stereo not drawn) [Example 25, (3,12b-trans)-2-methyl-3-(1-methylethyl)-1,2,3,7,8,12b-hexahydrobenzo[6,7]cyclohepta[1,2,3-de]isoquinoline-4,5-diol hydrobromide] | 2.4 ± 0.6 mg/kg, i.p. | 17.5 ± 6.0 mg/kg, i.p. |  |  | 
CN1C[C@H]2c3ccccc3CCc3c(O)c(O)cc(c32)[C@@H]1Cc1ccccc1 (relative stereo) [Example 33, (3,12b-trans)-2-methyl-3-(phenylmethyl)-1,2,3,7,8,12b-hexahydrobenzo[6,7]-cyclohepta[1,2,3-de]isoquinoline-5,6-diol hydrobromide] |  |  | 2 ± 0.2 | 9.2 ± 7.2 | 
COc1cc2c3c(c1O)C(Cc1ccccc1)N(C)CC3c1ccccc1CC2 (stereo not drawn) [Example 37, (3,12b-trans)-5-Methoxy-2-methyl-3-(phenylmethyl)-1,2,3,7,8,12b-hexahydrobenzo[6,7]-cyclohepta[1,2,3-de]isoquinolin-4-ol] | 5.4 ± 1.8 mg/kg, i.p. | 8.2 ± 2.4 mg/kg, i.p. |  |  | 
CN1CCN(C2=Nc3cc(Cl)ccc3Nc3ccccc32)CC1 [clozapine] |  |  |  |  | have shown this unusual pharmacological profile
